Earlier results as cited in article PMC6606825 (Journal of Ginseng Research, 2018).

Test system: P-gp
Settings: in vitro and in situ; cited from earlier work

Row | Compound | P-gp inhibition
1 | CC(C)=CCC[C@](C)(O)[C@H]1CC[C@]2(C)[C@@H]1[C@H](O)C[C@@H]1[C@@]3(C)CC[C@H](O)C(C)(C)[C@@H]3CC[C@]12C [20(S)-PPD, 20(S)-protopanaxadiol] | inhibit P-gp
2 | CC(C)=CCC[C@](C)(O[C@@H]1O[C@H](CO)[C@@H](O)[C@H](O)[C@H]1O)[C@H]1CC[C@]2(C)[C@@H]1[C@H](O)C[C@@H]1[C@@]3(C)CC[C@H](O)C(C)(C)[C@@H]3CC[C@]12C [Ginsenoside compound K, 20-O-beta-D-glucopyranosyl-20(S)-protopanaxadiol] | inhibit P-gp
